Experimental data: ChEMBL document CHEMBL3272043, “Isoxazole anthelmintics” (1977)
The source made the active and inactive calls. No cut-off for these calls is given here.

Each molecule was assayed on Nippostrongylus brasiliensis (assay: Anthelmintic activity against Nippostrongylus brasiliensisin in parasitized po dosed albino rat assessed as dose required to 75 % clearance relative to untreated control). Conditions: read-out: MED.
Type: functional

SMILES	minimal effective dose
Clc1cc(-c2ccccc2)no1	16 mg/kg
CSc1cc(-c2ccccc2)no1	31 mg/kg
C=CCCCOc1cc(-c2ccccc2)no1	125 mg/kg
c1ccc(-c2cc(N3CCOCC3)on2)cc1	500 mg/kg
Cc1ccc(-c2cc(Cl)no2)cc1	500 mg/kg
CN(C)c1cc(-c2ccccc2)no1	125 mg/kg
Ic1cc(-c2ccccc2)on1	250 mg/kg
Clc1ccc(-c2cc(Cl)no2)cc1	62 mg/kg
CCOc1cc(-c2ccccc2)no1	31 mg/kg
Clc1noc(-c2ccccc2)c1Cl	31 mg/kg
Clc1ccc(-c2cc(Br)no2)cc1	250 mg/kg
Clc1ccc(-c2cc(Cl)no2)c(Cl)c1	62 mg/kg
Clc1cc(-c2ccccc2)on1	31 mg/kg
COc1cc(-c2ccccc2)no1	31 mg/kg
Clc1cc(-c2cccs2)on1	250 mg/kg
Clc1cc(-c2ccc(Cl)c(Cl)c2)on1	250 mg/kg
CCSc1cc(-c2ccccc2)no1	125 mg/kg
Brc1cc(-c2ccccc2)on1	31 mg/kg
Brc1cc(-c2ccccc2)no1	16 mg/kg

What follows are molecules tested on Nippostrongylus brasiliensis (assay: Anthelmintic activity against Nippostrongylus brasiliensisin in parasitized albino rat assessed as dose required to 75 % clearance at 500 mg/kg, po relative to untreated control). Conditions: not given.
Type: functional, organism-based
Set-up: dose 500 mg/kg

SMILES	Activity
FC(F)(F)c1cc(-c2ccccc2)on1	inactive
O=C(CC[N+](=O)[O-])c1cccs1	inactive
CS(=O)(=O)c1cc(-c2ccccc2)no1	inactive
O=[N+]([O-])c1cc(-c2cc(Cl)no2)ccc1Cl	inactive
CCSCCOc1cc(-c2ccccc2)no1	inactive
O=C(Nc1noc(-c2ccccc2)c1Cl)C(F)(F)F	inactive
Nc1noc(-c2ccccc2)c1Br	inactive
Nc1noc(-c2ccccc2)c1Cl	inactive
CNC(=O)Nc1cc(-c2ccccc2)on1	inactive
COC(=O)Nc1cc(-c2ccccc2)on1	inactive
O=C(CC[N+](=O)[O-])c1ccc(Cl)c(Cl)c1	inactive
O=C(Nc1cc(-c2ccccc2)on1)C(F)(F)F	inactive
O=[N+]([O-])c1ccc(-c2cc(Cl)no2)cc1	inactive
Nc1cc(-c2ccccc2)on1	inactive
C=CCc1c(-c2ccccc2)noc1Cl	inactive
CSc1onc(-c2ccccc2)c1Cl	inactive
Clc1onc(-c2ccccc2)c1Cl	inactive
Cc1ccc(C(=O)CC[N+](=O)[O-])cc1	inactive
COc1onc(-c2ccccc2)c1Cl	inactive
c1ccc(CSc2cc(-c3ccccc3)no2)cc1	inactive
Clc1ccc(-c2ccno2)cc1	inactive
C[S+]([O-])c1cc(-c2ccccc2)no1 (stereo not drawn)	inactive
O=C(CC[N+](=O)[O-])c1ccc(Cl)cc1Cl	inactive
c1ccc(-c2ccon2)cc1	inactive
CS(=O)(=O)Oc1cc(-c2ccccc2)on1	inactive
O=C(CC[N+](=O)[O-])c1ccc(Cl)cc1	inactive
Oc1cc(-c2ccc(Cl)cc2)on1	inactive
FC(F)(F)c1cc(-c2ccccc2)no1	inactive
O=C(CC[N+](=O)[O-])c1ccccc1	inactive
